Data published in PubChem BioAssay (NCI).
“And” between values parts separate entries of the source, which are not always exact repeats. Equal entries are not always repeated.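 Method: 48-hour compound exposure of cells in 96-well plates, five concentrations, linear interpolation of endpoints. Abbreviation: GI50, concentration required for 50% inhibition of growth. TGI denotes the concentration required for complete inhibition of growth.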

Key:
Assay in all cases: NCI tumour cell line growth inhibition, 48 h
[1] = test system: SR leukemia
[2] = test system: A549 NSCLC
[3] = test system: HOP-62 NSCLC
[4] = test system: HCT-116 colon
[5] = test system: XF 498 CNS
[6] = test system: LXFL 529 NSCLC
[7] = test system: SNB-78 CNS
[8] = test system: M19-MEL melanoma
[9] = test system: HOP-18 NSCLC
[10] = test system: DMS 114 small cell lung
[11] = test system: DLD-1 colon
[12] = test system: RXF-631 renal
[13] = test system: KM20L2 colon
[14] = test system: DMS 273 small cell lung

SMILES	TGI [1]	TGI [2]	TGI [3]	TGI [4]	TGI [5]	TGI [6]	TGI [7]	TGI [8]	TGI [9]	TGI [10]	TGI [11]	TGI [12]	TGI [13]	TGI [14]	GI50 [3]	GI50 [1]
COc1cccc(C=C2N=C(c3ccccc3)N(n3c(-c4ccccc4)nc4ccccc4c3=O)C2=O)c1	> 100 µM	> 100 µM	> 100 µM	> 100 µM												
CCOC(=O)C(/C(=N\NC(=O)OC)C(=O)Nc1cc(OC)ccc1OC)c1cnc2ccccc2n1 (centres undefined)	> 100 µM	> 100 µM	> 100 µM	> 100 µM	> 100 µM	> 100 µM	> 100 µM	> 100 µM	> 100 µM	> 100 µM	> 100 µM					
C[C@@H]1OC2(O)[C@H]3CCCN3S(=O)(=O)CCN2C1=O (some centres undefined)	> 100 µM	> 100 µM	> 100 µM	> 100 µM		> 100 µM	> 100 µM	> 100 µM	> 100 µM		> 100 µM	> 100 µM	> 100 µM			
COc1cc(OC)c2c(=O)c3c([N+](=O)[O-])cccc3n(C)c2c1	> 100 µM	> 100 µM	> 100 µM	> 100 µM		> 100 µM	> 100 µM	> 100 µM	> 100 µM	> 100 µM	> 100 µM		> 100 µM	> 100 µM		
O=C(N/N=C(/c1nc2ccc([N+](=O)[O-])cc2[nH]c1=O)C(O)c1ccc([N+](=O)[O-])cc1)c1ccncc1 (centres undefined)	> 100 µM	> 100 µM	> 100 µM	> 100 µM	> 100 µM	> 100 µM	> 100 µM	> 100 µM	> 100 µM	> 100 µM	> 100 µM					
O=C(Cn1c(=O)oc2ccc(C(=O)c3ccc(F)cc3)cc21)c1ccccc1	> 100 µM	> 100 µM	> 100 µM	> 100 µM												
CC(=O)C1(C)CC(C#N)(C#N)C(C#N)=C1N (centres undefined)	> 100 µM	> 100 µM	> 100 µM	> 100 µM												
Oc1cc(CN2CCOCCOCCOCCOCC2)c(O)cc1CN1CCOCCOCCOCCOCC1	43.8 µM	> 100 µM	> 100 µM	43.4 µM	42.5 µM	44.2 µM	> 100 µM	19.3 µM			48.2 µM		> 100 µM			
COc1cc(/C=N/c2ccccn2)cc(OC)c1OC	> 100 µM	> 100 µM	> 100 µM	> 100 µM												
CC1OC(OC2C(OC(=O)[C@]34CCC(C)(C)C[C@H]3C3=CC[C@@H]5[C@@]6(C)CC[C@H](OC7OC(CO)C(O)C(O)C7OC7OC(CO)C(O)C(O)C7O)C(C)(C)[C@@H]6CC[C@@]5(C)[C@]3(C)CC4)OCC(O)C2O)C(O)C(O)C1OC1OCC(O)C(OC2OCC(O)C(O)C2O)C1O (some centres undefined)	8.14 µM and 8.97 µM	10.2 µM and 9.72 µM	23.3 µM and 11.2 µM	16.7 µM and 14 µM											9.23 µM and 3.83 µM	
COc1cc(C(c2cccc3ccccc23)N2C(=O)CCC2C(=O)O)cc(OC)c1OC (centres undefined)	> 100 µM	> 100 µM	> 100 µM	> 100 µM												
CCOC(=O)N(C)C(=C(F)F)C(F)(F)F	20.9 µM	> 100 µM	68.9 µM	55.2 µM												
Oc1cnc2c(O)cccc2c1	> 100 µM	> 100 µM	> 100 µM	> 100 µM												
CCCCOCOc1ccccc1P1(=O)COc2ccccc2OC1	> 100 µM	> 100 µM	> 100 µM	> 100 µM												
COC1CC(C)([N+](=O)[O-])C(O)C(C)O1 (centres undefined)	> 100 µM	> 100 µM	> 100 µM	> 100 µM												
O=[N+]([O-])c1ccc(C2=NOC(c3ccc(Cl)cc3)N2C23CC4CC(CC(C4)C2)C3)cc1 (centres undefined)	> 100 µM	> 100 µM	> 100 µM	> 100 µM												
CC(=O)OCC1OC(n2c(N)c(C#N)c(C)c(C#N)c2=S)C(OC(C)=O)C(OC(C)=O)C1OC(C)=O (centres undefined)	> 100 µM	> 100 µM	> 100 µM	> 100 µM												39.5 µM and > 100 µM
C=C1C(=O)O[C@H]2C/C(C)=C/CC[C@]3(C)CCC[C@](C)(CC[C@@H]12)O3	22.5 µM	> 50 µM	> 50 µM	20.1 µM												
NC(=O)NNCc1c(-c2ccccc2)no[n+]1[O-]	> 100 µM	> 100 µM	> 100 µM	> 100 µM												
C/C(=N/NC(=O)C[n+]1ccccc1)C(CN(CC(C)C)CC(C)C)C(=O)Nc1ccc(C)cc1C (centres undefined)	> 100 µM	> 100 µM	> 100 µM	> 100 µM				> 100 µM		> 100 µM	> 100 µM	> 100 µM	> 100 µM			
CCCCC(/C=C\COC1CCCCO1)=C/C(=O)OCC (centres undefined)	> 100 µM	> 100 µM	> 100 µM	> 100 µM												
COC(=O)c1nn2ccc3ccccc3c2c1C(=O)OC	> 100 µM	> 100 µM	> 100 µM	> 100 µM												
CCc1cc2c(c3c1CCCC3)CC1(Cc3ccc(C(=O)OC)cc3C1)C2 (centres undefined)	85.1 µM	> 100 µM	> 100 µM	> 100 µM												
C[C@@H]1O[C@]2(O)[C@@H]3CCCN3S(=O)(=O)CCN2C1=O	> 100 µM	> 100 µM	> 100 µM	> 100 µM	> 100 µM	> 100 µM	> 100 µM	> 100 µM	> 100 µM		> 100 µM	> 100 µM	> 100 µM			
CN=C(N)N=Nc1c(O)[nH]c2ccccc12	> 100 µM	> 100 µM	> 100 µM	> 100 µM												
CCOC(=O)c1nc2ccccc2nc1Nc1ccc(OC)cc1	> 100 µM	> 100 µM	30.7 µM	> 100 µM												
C[C@@]1(Cc2ccccc2)C(=O)N2[C@@H](CO)C(c3ccccc3)O[C@]2(C)c2ccccc21 (some centres undefined)	> 100 µM	> 100 µM	> 100 µM	> 100 µM		> 100 µM	> 100 µM	> 100 µM		> 100 µM	> 100 µM		> 100 µM	> 100 µM		
CC12C(=C(C#N)C(=N)N1c1ccc(Cl)c(Cl)c1)C=C(O)CC2SCCS(=O)(=O)O (centres undefined)	> 100 µM	> 100 µM	> 100 µM	> 100 µM		> 100 µM	> 100 µM	> 100 µM		> 100 µM	> 100 µM		> 100 µM	> 100 µM		
CC1(C)S[C@H](CN)N[C@H]1C(=O)OC(c1ccccc1)c1ccccc1	63.6 µM	> 100 µM	> 100 µM	> 100 µM												
COC(=O)C1=C(OC(=O)/C=C/c2ccc(Cl)cc2)C(C(=O)OC)[C@]2(O)[C@@H](C(=O)OC)[C@H]1C[C@@H](c1ccccc1)[C@@H]2C(=O)OC (some centres undefined)	> 100 µM	> 100 µM	> 100 µM	> 29.4 µM												
